Experimental data as given in US5318967A, “2,3,3a,4,5,9b-hexahydro-1H-benzo[e]indole derivatives” (priority 1991, dated 1994).
Where a name gives a salt, the structure may show the parent alone. Read-outs that look alike come from different tables or passages of the source.

Columns and labels:
acetylcholine esterase = acetylcholine esterase (Homo sapiens, UniProt P22303); assay: biochemical
Description: The determination of the acetylcholine esterase inhibition was effected according to the method of Ellmann et al., Biochem. Pharmacol. 7 (1961) 88, and/or according to the method of Johnson et al., Analytical Biochemistry 64 (1975), 229.

M1 = assay: Muscarinic M1 receptor binding, [3H]-Pirenzepine
Description: (§1) Furthermore, the compounds of formula I have affinity for sigma receptors, determined according to Weber et al., Proc. Natl. Acad. Sci. USA 83 (1986), 8784) and in part also for muscarinic receptors, determined according to Watson et al., Pharmacol. Exp. Ther. 237 (1986), 419 and according to Eberlein et al., Trends Pharmacol. Science 10 (1989), 50.

Sigma = Sigma receptor binding, [3H]-DTG (Weber et al.); conditions: for Percentage inhibition: [3H]-DTG
Description: as §1

muscarinic receptors [1] = assay: Affinity for muscarinic receptors (Watson et al.; Eberlein et al.); assay type: binding
Description: as §1

rat = assay: Toxicity, lowest lethal dose (LLD), rat
M2 = assay: Muscarinic M2 receptor binding, [3H]-AFDX 384
Description: as §1

muscarinic receptors [2] = assay: Antagonism of contraction of guinea pig plexus myentericus preparation induced by muscarinic agonists (Kilbinger et al.); conditions: micromolar concentrations
mouse = assay: Toxicity, lowest lethal dose (LLD), mouse; assay type: in vivo; conditions: po mouse
[3] = IC 50 for acetylcholine esterase inhibition
[4] = read-out: IC 50 for acetylcholine esterase inhibition

Sequence of acetylcholine esterase (P22303 32-614): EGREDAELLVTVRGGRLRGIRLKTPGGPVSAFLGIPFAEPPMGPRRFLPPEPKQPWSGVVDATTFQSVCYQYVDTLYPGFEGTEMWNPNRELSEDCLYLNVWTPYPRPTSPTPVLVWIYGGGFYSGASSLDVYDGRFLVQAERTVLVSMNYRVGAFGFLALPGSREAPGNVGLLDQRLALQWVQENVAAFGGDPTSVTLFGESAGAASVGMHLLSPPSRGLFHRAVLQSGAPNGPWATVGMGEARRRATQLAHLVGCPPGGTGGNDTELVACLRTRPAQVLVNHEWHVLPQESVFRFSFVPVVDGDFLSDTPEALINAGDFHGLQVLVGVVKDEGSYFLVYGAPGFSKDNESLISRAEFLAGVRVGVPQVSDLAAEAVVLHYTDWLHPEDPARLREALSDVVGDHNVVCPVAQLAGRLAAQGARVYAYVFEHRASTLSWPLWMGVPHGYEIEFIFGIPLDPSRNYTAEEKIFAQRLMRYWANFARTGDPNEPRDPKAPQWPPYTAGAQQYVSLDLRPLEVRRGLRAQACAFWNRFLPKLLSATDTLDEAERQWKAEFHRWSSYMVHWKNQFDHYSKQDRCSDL

## CN(C)C(=O)Oc1cccc2c1CC[C@H]1[C@@H]2CCN1CCC1CCCCC1.Cl (single isomer, unassigned) [A, (+)-cis-3-(2-cyclohexylethyl)-2,3,3a,4,5,9b-hexahydro-1H-benzo[e]indol-6-yl dimethylcarbamate hydrochloride]
Acetylcholine esterase; [3]
  IC50: 22 nM
M1; 10^-5 M
  Percentage inhibition: 87.9%
M1; 10^-7 M
  Percentage inhibition: 2.2%
Sigma
  affinity for sigma receptors (in words): affinity to sigma receptors
Sigma; 10^-5 M
  Percentage inhibition: 100.7%
Sigma; 10^-7 M
  Percentage inhibition: 62.1%
Muscarinic receptors [1]
  affinity for muscarinic receptors (in words): preferential affinity for muscarinic receptors of the M2 type
rat; sc rat
  LLD (lowest lethal dose): 30 mg/kg
M2; [3H]-AFDX 384, 10^-5 M
  Percentage inhibition: 94.8%
M2; [3H]-AFDX 384, 10^-7 M
  Percentage inhibition: 31.3%
Muscarinic receptors [2]
  antagonism of contraction induced by muscarinic agonists (in words): in micromolar concentrations it antagonizes a contraction of a preparation of guinea pig plexus myentericus induced by muscarinic agonists

## CN(C)C(=O)Oc1cccc2c1CC[C@H]1[C@@H]2CCN1CCN1CCOCC1.Cl.Cl (racemic) [F, rac-cis-2,3,3a,4,5,9b-hexahydro-3-(2-morpholinoethyl)-1H-benzo[e]indol-6-yl dimethylcarbamate dihydrochloride]
Acetylcholine esterase; [3]
  IC50: 108 nM
rat; sc rat
  LLD (lowest lethal dose): 30 mg/kg

## CN(C)C(=O)Oc1cccc2c1CC[C@H]1[C@@H]2CCN1CCCCN1C(=O)c2ccccc2C1=O.Cl (racemic) [D, rac-cis-2,3,3a,4,5,9b-hexahydro-3-(4-phthalimidobutyl)-1H-benzo[e]indol-6-yl dimethylcarbamate hydrochloride]
Acetylcholine esterase; [3]
  IC50: 1.4 nM
rat; ip rat
  LLD (lowest lethal dose): 3 mg/kg

## CN(C)C(=O)Oc1cccc2c1CC[C@H]1[C@@H]2CCN1CCCCCCN1C(=O)c2ccccc2C1=O.Cl (racemic) [E, rac-cis-2,3,3a,4,5,9b-hexahydro-3-(6-phthalimidohexyl)-1H-benzo[e]indol-6-yl dimethylcarbamate hydrochloride]
Acetylcholine esterase; [3]
  IC50: 0.4 nM
rat; sc rat
  LLD (lowest lethal dose): 10 mg/kg

## CCCN1CC[C@@H]2c3c(cccc3OC(=O)N(C)C)CC[C@@H]21 (racemic) [G, rac-cis-2,3,3a,4,5,9b-hexahydro-3-propyl-1H-benzo[e]indol-9-yl dimethylcarbamate]
Acetylcholine esterase; [4]
  IC50: 350 nM
mouse
  LLD (lowest lethal dose): 125 mg/kg

## CN(C)C(=O)Oc1cccc2c1CC[C@H]1[C@@H]2CCN1CCC1CCCCC1 (single isomer, unassigned) [B, (-)-cis-3-(2-cyclohexylethyl)-2,3,3a,4,5,9b-hexahydro-1H-benzo[e]indol-6-yl dimethylcarabamate hydrochloride]
Acetylcholine esterase; [4]
  IC50: 30 nM
rat; sc rat
  LLD (lowest lethal dose): 30 mg/kg

## CN(C)C(=O)Oc1cccc2c1CC[C@H]1[C@@H]2CCN1CCC1CCCCC1.Cl (racemic) [C, rac-cis-3-(2-cyclohexylethyl)-2,3,3a,4,5,9b-hexahydro-1H-benzo[e]indol-6-yl dimethylcarbamate hydrochloride]
Acetylcholine esterase; [3]
  IC50: 16 nM
rat; ip rat
  LLD (lowest lethal dose): 30 mg/kg

## CN(C)C(=O)Oc1cccc2c1CC[C@H]1[C@@H]2CCN1CCCCCNC(=O)c1ccc(S(C)(=O)=O)cc1 (racemic) [rac-cis-3-[5-(4-methanesulfonylbenzoylamino)pentyl]-2,3,3a,4,5,9b-hexahydro-1H-benzo[e]indol-6-yl dimethylcarbamate]
Acetylcholine esterase; [4]
  IC50: 5.1 nM

## CCCN1C[C@@H](C)[C@@H]2c3cccc(OC(=O)N(C)C)c3CC[C@@H]21 (relative stereo) [H, rac-2,3,3aα,4,5,9bα-hexahydro-1α-methyl-3-propyl-1H-benzo[e]indol-6-yl dimethylcarbamate]
Acetylcholine esterase; [4]
  IC50: 488 nM
rat; sc rat
  LLD (lowest lethal dose): 100 mg/kg

## CN(C)C(=O)Oc1cccc2c1CC[C@H]1[C@@H]2CCN1CCCCC(=O)c1ccccc1 (racemic) [rac-3-(4-benzoyl-butyl)-cis-2,3,3a,4,5,9b-hexahydro-1H-benzo[e]indol-6-yl dimethylcarbamate]
Acetylcholine esterase; [4]
  IC50: 612 nM

## CCCN1CC[C@@H]2c3cccc(OC(=O)N(C)C)c3CC[C@@H]21 (racemic) [rac-3-propyl-cis-2,3,3a,4,5,9b-hexahydro-1H-benzo[e]indol-6-yl dimethylcarbamate]
Acetylcholine esterase; [4]
  IC50: 40 nM

## CN(C)C(=O)Oc1cccc2c1CC[C@@H]1[C@H]2CCN1Cc1ccccc1 (relative stereo) [rac-3-benzyl-2,3,3a,4,5,9b-hexahydro-1H-cis-benzo[e]indol-6-yl dimethylcarbamate]
Acetylcholine esterase; [4]
  IC50: 49 nM

## CN(C)C(=O)Oc1cccc2c1CC[C@@H]1[C@H]2CCN1CCCCCCNC(=O)c1ccc(S(C)(=O)=O)cc1 (relative stereo) [rac-3-[6-(4-methanesulfonyl-benzoylamino)hexyl]-2,3,3a,4,5,9b-hexahydro-1H-cis-benzo[e]indol-6-yl-dimethylcarbamate]
Acetylcholine esterase; [4]
  IC50: 5.6 nM

## CN(C)C(=O)Oc1cccc2c1CC[C@@H]1[C@H]2CCN1CCCCCCN (relative stereo) [rac-3-(6-aminohexyl)-2,3,3a,4,5,9b-hexahydro-1H-cis-benzo[e]indol-6-yl dimethylcarbamate]
Acetylcholine esterase; [4]
  IC50: 8 nM
